From publication PMC10599993, “The PTPN2/PTPN1 inhibitor ABBV-CLS-484 unleashes potent anti-tumour immunity” (Nature, 2023)

Legend:
Assay in all cases: biochemical
Design in all cases: Safety pharmacology off-target panel at Eurofins, radioligand binding with agonist or antagonist radioligand (Supplementary Table 2)
5-HT2B = biological target: T1, 5-HT2B (Homo sapiens, UniProt P41595); settings: agonist radioligand
T1 construct: gene HTR2B
Experimental: (§1) Wide-range phosphatase, kinase and preclinical safety pharmacology off-target activity screens were conducted at Eurofins (Extended Data Table 5 and Supplementary Tables 1 and 2). A small phosphatase panel was developed at AbbVie to assess IC50 values on select phosphatases. The following enzymes used in the phosphatase selectivity panel were purchased from Eurofins: PTPN1 (PTP1B; 14–621), PTPN2 (TC-PTP; 14–646), PTPN9 (14–592), SHP1 (14–591) and SHP2 (14–622). The catalytic activity of the phosphatase was monitored using the small-molecule substrate DiFMUP (ThermoFisher) in a fluorescence assay format. In brief, the phosphatase reactions were performed at room temperature in the following assay buffer: 50 mM HEPES, pH 7.2, 100 mM NaCl, 1 mM EDTA, 0.005% Tween-20 and 5 mM TCEP. Each phosphatase was incubated with increasing concentrations of AC484 for 5 min, after which the substrate DiFMUP was added and incubated at 25 °C for 30 min. The final concentration of the enzyme and substrate was maintained at 0.5 nM and 5 μM, respectively, in all the assays. The reaction was then quenched by the addition of a 100 μM solution of bpV(Phen) (Enzo Life Sciences). The fluorescence signal was monitored using an Envision microplate reader (Perkin-Elmer) using excitation and emission wavelengths of 340 nm and 450 nm, respectively. The dose–response curves for the inhibitors were analysed using normalized IC50 regression curve fitting with control-based normalization. Supplementary file 41586_2023_6575_MOESM4_ESM.xlsx: Supplementary Table 2 AC484 receptor selectivity screen.

A1 (h) = biological target: T2, A1 (h) (Homo sapiens, UniProt P30542); settings: antagonist radioligand
T2 construct: gene ADORA1
T2 sequence (P30542 whole entry): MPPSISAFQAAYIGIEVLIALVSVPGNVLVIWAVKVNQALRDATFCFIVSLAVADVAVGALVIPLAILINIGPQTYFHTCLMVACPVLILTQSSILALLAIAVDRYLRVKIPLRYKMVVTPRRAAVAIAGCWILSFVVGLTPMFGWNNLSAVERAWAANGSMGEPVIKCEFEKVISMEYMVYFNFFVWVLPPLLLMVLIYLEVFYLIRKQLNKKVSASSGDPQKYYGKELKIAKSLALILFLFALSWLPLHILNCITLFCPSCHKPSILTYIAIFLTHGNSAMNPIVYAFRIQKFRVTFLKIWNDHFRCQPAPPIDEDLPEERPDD
Experimental: as §1

AT2 (h) = biological target: T3, AT2 (h) (Homo sapiens, UniProt P50052); settings: agonist radioligand
T3 construct: gene AGTR2
Experimental: as §1

B2 = biological target: T4, B2 (Homo sapiens, UniProt P30411); settings: agonist radioligand
T4 construct: gene BDKRB2
T4 sequence (P30411 whole entry): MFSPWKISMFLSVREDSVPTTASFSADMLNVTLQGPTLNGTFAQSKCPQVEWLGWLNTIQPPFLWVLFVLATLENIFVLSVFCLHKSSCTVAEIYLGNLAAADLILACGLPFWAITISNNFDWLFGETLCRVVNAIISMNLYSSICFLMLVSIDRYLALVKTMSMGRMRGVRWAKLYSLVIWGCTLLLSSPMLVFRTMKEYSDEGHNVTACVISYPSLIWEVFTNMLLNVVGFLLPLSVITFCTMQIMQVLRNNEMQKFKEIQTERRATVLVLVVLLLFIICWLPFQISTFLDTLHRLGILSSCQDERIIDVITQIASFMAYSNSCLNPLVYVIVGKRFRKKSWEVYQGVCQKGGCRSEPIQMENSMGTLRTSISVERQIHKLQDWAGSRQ
Experimental: as §1

D2S = biological target: T5, D2S (Homo sapiens, UniProt P14416); settings: antagonist radioligand
T5 construct: gene DRD2; D2S short isoform
T5 sequence (P14416 whole entry, canonical isoform): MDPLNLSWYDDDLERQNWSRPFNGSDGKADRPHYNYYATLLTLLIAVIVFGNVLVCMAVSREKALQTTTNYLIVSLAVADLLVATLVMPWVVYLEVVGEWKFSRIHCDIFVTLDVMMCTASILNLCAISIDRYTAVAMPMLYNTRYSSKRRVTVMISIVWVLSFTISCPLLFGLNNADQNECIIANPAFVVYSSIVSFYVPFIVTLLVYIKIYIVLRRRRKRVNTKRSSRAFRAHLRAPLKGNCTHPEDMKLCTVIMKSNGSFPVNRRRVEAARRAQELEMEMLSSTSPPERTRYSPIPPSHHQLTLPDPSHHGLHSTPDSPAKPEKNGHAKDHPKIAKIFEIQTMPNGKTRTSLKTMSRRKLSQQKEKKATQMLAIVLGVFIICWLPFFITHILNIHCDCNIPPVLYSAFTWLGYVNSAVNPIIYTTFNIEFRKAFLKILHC
Experimental: as §1

EP2 = biological target: T6, EP2 (Homo sapiens, UniProt P43116); settings: agonist radioligand
T6 construct: gene PTGER2
T6 sequence (P43116 whole entry): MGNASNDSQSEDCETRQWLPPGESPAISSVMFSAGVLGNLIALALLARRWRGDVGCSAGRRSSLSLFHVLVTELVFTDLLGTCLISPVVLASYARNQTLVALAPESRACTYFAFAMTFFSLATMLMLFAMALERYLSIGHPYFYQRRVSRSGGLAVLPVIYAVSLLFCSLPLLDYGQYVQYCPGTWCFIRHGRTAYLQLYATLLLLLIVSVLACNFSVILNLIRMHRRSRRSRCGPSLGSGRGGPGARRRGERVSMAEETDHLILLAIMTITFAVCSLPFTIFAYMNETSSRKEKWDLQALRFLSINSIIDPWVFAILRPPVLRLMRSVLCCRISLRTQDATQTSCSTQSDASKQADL
Experimental: as §1

GR = biological target: T7, GR (Homo sapiens, UniProt P04150); settings: agonist radioligand
T7 construct: gene NR3C1
T7 sequence (P04150 whole entry): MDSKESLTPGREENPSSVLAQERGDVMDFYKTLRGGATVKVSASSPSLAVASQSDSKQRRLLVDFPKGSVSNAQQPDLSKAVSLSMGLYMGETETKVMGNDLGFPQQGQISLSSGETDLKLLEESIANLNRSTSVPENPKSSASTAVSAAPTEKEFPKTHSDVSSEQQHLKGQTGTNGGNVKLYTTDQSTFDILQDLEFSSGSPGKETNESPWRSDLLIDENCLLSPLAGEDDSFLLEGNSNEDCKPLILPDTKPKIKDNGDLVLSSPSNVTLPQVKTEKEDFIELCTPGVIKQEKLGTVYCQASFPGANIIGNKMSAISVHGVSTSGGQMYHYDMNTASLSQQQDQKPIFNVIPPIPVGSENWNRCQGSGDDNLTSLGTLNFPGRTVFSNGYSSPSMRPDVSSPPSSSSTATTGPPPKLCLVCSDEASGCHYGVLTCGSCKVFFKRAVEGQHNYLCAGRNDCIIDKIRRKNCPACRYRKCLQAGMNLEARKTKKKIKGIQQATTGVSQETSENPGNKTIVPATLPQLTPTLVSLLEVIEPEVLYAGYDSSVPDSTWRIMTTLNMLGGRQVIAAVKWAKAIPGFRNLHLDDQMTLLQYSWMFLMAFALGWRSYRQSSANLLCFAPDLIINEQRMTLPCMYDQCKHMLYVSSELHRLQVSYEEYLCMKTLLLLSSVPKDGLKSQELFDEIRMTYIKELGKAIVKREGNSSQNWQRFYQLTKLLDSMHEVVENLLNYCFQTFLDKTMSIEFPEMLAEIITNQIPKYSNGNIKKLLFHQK
Experimental: as §1

H1 = biological target: T8, H1 (Homo sapiens, UniProt P35367); settings: antagonist radioligand
T8 construct: gene HRH1
T8 sequence (P35367 whole entry): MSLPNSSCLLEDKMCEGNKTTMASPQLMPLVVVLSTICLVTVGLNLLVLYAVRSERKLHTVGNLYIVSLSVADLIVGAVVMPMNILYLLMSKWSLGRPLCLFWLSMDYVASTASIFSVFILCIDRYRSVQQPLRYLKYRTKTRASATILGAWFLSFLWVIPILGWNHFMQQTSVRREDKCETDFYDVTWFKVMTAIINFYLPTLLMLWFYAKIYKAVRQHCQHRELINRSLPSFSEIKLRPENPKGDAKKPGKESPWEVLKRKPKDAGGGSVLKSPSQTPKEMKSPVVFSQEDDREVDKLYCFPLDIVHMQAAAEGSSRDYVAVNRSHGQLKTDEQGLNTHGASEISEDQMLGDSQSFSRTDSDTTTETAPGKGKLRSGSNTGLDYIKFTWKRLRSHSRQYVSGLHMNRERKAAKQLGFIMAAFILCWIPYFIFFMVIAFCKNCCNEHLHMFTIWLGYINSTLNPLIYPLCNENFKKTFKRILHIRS
Experimental: as §1

H2 = biological target: T9, H2 (Homo sapiens, UniProt P25021); settings: antagonist radioligand
T9 construct: gene HRH2
T9 sequence (P25021 whole entry): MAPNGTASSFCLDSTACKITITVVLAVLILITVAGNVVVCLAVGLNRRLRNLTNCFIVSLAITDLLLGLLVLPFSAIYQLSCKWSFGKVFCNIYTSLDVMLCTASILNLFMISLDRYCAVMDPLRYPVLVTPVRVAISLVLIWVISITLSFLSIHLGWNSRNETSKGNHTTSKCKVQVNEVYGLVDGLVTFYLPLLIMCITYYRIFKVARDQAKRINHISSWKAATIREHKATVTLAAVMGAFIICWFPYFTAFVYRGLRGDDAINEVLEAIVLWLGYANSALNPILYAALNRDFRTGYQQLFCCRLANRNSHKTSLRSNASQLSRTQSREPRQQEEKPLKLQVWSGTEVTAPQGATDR
Experimental: as §1

M1 = biological target: T10, M1 (Homo sapiens, UniProt P11229); settings: antagonist radioligand
T10 construct: gene CHRM1
Experimental: as §1

M4 = biological target: T11, M4 (Homo sapiens, UniProt P08173); settings: antagonist radioligand
T11 construct: gene CHRM4
Experimental: as §1

NK1 = biological target: T12, NK1 (Homo sapiens, UniProt P25103); settings: agonist radioligand
T12 construct: gene TACR1
Experimental: as §1

[1] = biological target: T13, Norepinephrine transporter (Homo sapiens, UniProt P23975); settings: antagonist radioligand
T13 construct: gene SLC6A2
Experimental: as §1

UT = biological target: T14, UT (Homo sapiens, UniProt Q9UKP6); settings: agonist radioligand
T14 construct: gene UTS2R
T14 sequence (Q9UKP6 whole entry): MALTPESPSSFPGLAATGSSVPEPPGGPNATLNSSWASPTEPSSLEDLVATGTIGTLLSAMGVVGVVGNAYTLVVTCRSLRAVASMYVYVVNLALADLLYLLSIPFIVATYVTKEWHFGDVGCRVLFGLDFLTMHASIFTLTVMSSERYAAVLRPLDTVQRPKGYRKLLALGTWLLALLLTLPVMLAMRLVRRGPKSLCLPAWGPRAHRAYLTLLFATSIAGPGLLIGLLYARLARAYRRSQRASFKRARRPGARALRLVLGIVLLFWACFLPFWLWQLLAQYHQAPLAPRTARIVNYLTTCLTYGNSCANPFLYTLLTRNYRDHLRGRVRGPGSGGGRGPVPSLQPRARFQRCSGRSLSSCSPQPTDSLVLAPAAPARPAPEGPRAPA
Experimental: as §1

VPAC1 (VIP1) = biological target: T15, VPAC1 (VIP1) (Homo sapiens, UniProt P32241); settings: agonist radioligand
T15 construct: gene VIPR1
T15 sequence (P32241 whole entry): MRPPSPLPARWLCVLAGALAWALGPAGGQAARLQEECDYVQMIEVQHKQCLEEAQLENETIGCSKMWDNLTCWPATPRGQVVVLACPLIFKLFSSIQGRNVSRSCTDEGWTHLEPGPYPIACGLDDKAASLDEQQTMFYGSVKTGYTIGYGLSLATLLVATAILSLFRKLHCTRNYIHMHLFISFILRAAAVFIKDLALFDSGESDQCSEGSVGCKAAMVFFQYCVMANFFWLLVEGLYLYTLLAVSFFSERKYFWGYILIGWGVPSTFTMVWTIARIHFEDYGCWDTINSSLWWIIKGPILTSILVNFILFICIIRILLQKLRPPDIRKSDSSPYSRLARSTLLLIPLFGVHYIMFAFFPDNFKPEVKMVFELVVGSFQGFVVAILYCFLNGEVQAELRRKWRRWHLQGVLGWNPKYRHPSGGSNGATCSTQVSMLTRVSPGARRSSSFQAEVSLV
Experimental: as §1

a1B (h) = biological target: T16, a1B (h) (Homo sapiens, UniProt P35368); settings: antagonist radioligand
T16 construct: gene ADRA1B
T16 sequence (P35368 whole entry): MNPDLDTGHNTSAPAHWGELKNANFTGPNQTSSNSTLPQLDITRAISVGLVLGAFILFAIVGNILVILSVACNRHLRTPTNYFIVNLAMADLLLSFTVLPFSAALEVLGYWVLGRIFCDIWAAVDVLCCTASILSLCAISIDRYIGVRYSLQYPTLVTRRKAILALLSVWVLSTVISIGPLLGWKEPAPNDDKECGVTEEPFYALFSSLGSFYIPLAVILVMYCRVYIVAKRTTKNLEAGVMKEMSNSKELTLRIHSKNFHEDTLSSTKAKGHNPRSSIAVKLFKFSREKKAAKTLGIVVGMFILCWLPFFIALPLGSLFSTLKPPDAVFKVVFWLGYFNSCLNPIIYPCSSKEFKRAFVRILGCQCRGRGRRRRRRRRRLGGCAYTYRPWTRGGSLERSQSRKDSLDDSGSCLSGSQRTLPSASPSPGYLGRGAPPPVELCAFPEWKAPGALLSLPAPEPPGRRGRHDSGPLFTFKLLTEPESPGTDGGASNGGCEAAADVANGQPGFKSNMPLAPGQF
Experimental: as §1

a2A (h) = biological target: T17, a2A (h) (Homo sapiens, UniProt P08913); settings: antagonist radioligand
T17 construct: gene ADRA2A
Experimental: as §1

a2B (h) = biological target: T18, a2B (h) (Homo sapiens, UniProt P18089); settings: antagonist radioligand
T18 construct: gene ADRA2B
T18 sequence (P18089 whole entry): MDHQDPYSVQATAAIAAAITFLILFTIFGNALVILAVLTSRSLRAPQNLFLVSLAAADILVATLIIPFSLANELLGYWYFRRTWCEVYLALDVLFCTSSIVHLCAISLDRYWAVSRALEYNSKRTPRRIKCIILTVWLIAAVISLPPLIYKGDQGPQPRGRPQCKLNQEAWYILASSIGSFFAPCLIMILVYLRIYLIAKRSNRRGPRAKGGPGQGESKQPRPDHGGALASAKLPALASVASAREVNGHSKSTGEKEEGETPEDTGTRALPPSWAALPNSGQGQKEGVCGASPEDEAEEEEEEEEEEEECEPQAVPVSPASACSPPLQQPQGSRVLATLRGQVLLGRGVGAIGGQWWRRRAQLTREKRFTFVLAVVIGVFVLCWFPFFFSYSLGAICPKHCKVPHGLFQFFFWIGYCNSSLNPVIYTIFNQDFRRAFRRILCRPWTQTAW
Experimental: as §1

b2 (h) = biological target: T19, b2 (h) (Homo sapiens, UniProt P07550); settings: antagonist radioligand
T19 construct: gene ADRB2
Experimental: as §1

Measured: AC50

CC(C)CCN[C@@H]1CCc2cc(O)c(N3CC(=O)NS3(=O)=O)c(F)c2C1 [AC484, ABBV-CLS-484]
> 0.01 mM: all assays above
